Results from ChEMBL document CHEMBL2203017, “STAT6 phosphorylation inhibitors block eotaxin-3 secretion in bronchial epithelial cells” (Bioorg Med Chem, 2012).
The source made the active and inactive calls. No cut-off for these calls is given here.

Assays:
[1] = target: T1, Signal transducer and activator of transcription 6 (Homo sapiens) (UniProt P42226); assay: Inhibition of human N-terminal HA/myc tagged STAT6 expressed in 293-EBNA cells assessed as inhibition of IL-4-induced STAT6 inactive dimer-tyrosine phosphorylation after 1 hr by immunoblot analysis; type: cell-based
T1 sequence (whole entry): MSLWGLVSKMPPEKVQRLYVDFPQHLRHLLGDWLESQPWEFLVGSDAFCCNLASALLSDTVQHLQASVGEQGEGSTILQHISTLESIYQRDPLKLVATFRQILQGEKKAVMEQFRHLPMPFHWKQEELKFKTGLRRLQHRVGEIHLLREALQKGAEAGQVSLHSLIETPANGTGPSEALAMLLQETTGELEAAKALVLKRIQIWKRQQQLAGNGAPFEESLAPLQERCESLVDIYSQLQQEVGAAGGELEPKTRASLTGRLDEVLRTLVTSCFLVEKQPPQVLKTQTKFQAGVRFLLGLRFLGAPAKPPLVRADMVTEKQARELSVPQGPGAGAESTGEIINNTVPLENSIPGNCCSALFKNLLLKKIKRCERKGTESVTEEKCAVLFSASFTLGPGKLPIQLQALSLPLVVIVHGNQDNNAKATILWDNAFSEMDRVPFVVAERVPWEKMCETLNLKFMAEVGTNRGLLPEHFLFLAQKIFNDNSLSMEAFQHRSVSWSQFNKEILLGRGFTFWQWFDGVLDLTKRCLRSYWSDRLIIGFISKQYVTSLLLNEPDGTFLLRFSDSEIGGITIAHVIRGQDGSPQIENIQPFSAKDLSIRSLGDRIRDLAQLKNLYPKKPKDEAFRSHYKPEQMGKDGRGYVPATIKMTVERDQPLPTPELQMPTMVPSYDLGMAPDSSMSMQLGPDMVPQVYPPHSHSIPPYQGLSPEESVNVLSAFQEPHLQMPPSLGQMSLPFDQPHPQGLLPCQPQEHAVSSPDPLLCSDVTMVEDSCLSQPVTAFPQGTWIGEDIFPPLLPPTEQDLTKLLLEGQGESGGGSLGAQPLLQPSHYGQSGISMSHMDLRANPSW

[2] = target: T1, Signal transducer and activator of transcription 6 (Homo sapiens); assay: Inhibition of human N-terminal HA/myc tagged STAT6 expressed in 293-EBNA cells assessed as effect on STAT6 dimer configuration after 1 hr by immunoblot analysis; type: cell-based
[3] = target: T2, Signal transducer and activator of transcription 6 (Homo sapiens, UniProt P42226); assay: Binding affinity at human recombinant STAT6 by SPR analysis
T2 sequence (P42226 whole entry): T1 sequence (whole entry)

[4] = target: T1, Signal transducer and activator of transcription 6 (Homo sapiens); assay: Inhibition of IL-4-induced human STAT6 tyrosine phosphorylation expressed in 293-EBNA cells at 10 uM incubated for 1 hr prior to IL-4-induction measured after 6 hrs by Western blot analysis; type: cell-based
[5] = target: T1, Signal transducer and activator of transcription 6 (Homo sapiens); assay: Inhibition of interaction of human recombinant STAT6 with tyrosine phosphorylated IL-4Ralpha peptide at 20 uM after 1 hr by ELISA
[6] = target: T2, Signal transducer and activator of transcription 6; assay: Inhibition of human STAT6 expressed in 293-EBNA cells assessed as inhibition of IL4-induced STAT6 transcriptional activation after 1 hr by Photinus pylaris luciferase reporter gene assay; type: cell-based
[7] = Cytotoxicity against human 293-EBNA cells assessed as effect on luciferase activity at 10 uM after 1 hr by Photinus reniformis luciferase reporter gene assay; type: cell-based
[8] = target: T1, Signal transducer and activator of transcription 6 (Homo sapiens); assay: Inhibition of human STAT6 expressed in 293-EBNA cells assessed as inhibition of IL4-induced STAT6 transcriptional activation at 10 uM after 1 hr by Renilla reniformis luciferase reporter gene assay; type: cell-based
[9] = Cytotoxicity against human 293-EBNA cells assessed as effect on luciferase activity at 10 uM after 1 hr by Renilla reniformis luciferase reporter gene assay; type: cell-based
[10] = target: T1, Signal transducer and activator of transcription 6 (Homo sapiens); assay: Inhibition of human STAT6 expressed in 293-EBNA cells assessed as inhibition of IL4-induced STAT6 transcriptional activation at 10 uM after 1 hr by Photinus pylaris luciferase reporter gene assay; type: cell-based
[11] = target: Tyrosine-protein kinase JAK2 (Homo sapiens) (UniProt O60674); assay: Inhibition of JAK2 up to 10 uM after 30 mins by colorimetric ELISA
[12] = target: Signal transducer and activator of transcription 6 (Homo sapiens) (UniProt P42226); assay: Inhibition of human STAT6 expressed in BEAS2B cells assessed as IL4-induced eotaxin-3 secretion after 24 hrs by ELISA
[13] = target: Signal transducer and activator of transcription 6 (Homo sapiens) (UniProt P42226); assay: Inhibition of human STAT6 expressed in BEAS2B cells assessed as inhibition of IL4-induced STAT6 transcriptional activation
[14] = target: Signal transducer and activator of transcription 6 (Homo sapiens) (UniProt P42226); assay: Inhibition of human STAT6 expressed in BEAS2B cells assessed as […]-induced eotaxin-3 secretion at 10 uM after 24 hrs by ELISA
[15] = target: Signal transducer and activator of transcription 6 (Homo sapiens) (UniProt P42226); assay: Inhibition of human STAT6 expressed in BEAS2B cells assessed as IL4-induced eotaxin-3 secretion at 10 uM after 24 hrs by ELISA
[16] = target: Signal transducer and activator of transcription 6 (Homo sapiens) (UniProt P42226); assay: Inhibition of human STAT6 expressed in BEAS2B cells assessed as IL4/TNFalpha-induced eotaxin-3 secretion at 10 uM after 24 hrs by ELISA
[17] = target: Signal transducer and activator of transcription 6 (Homo sapiens) (UniProt P42226); assay: Inhibition of human STAT6 expressed in BEAS2B cells assessed as […]/TNFalpha-induced eotaxin-3 secretion in presence of TNFalpha at 10 uM after 24 hrs by ELISA

Chain of Tyrosine-protein kinase JAK2 (Homo sapiens) (O60674 whole entry): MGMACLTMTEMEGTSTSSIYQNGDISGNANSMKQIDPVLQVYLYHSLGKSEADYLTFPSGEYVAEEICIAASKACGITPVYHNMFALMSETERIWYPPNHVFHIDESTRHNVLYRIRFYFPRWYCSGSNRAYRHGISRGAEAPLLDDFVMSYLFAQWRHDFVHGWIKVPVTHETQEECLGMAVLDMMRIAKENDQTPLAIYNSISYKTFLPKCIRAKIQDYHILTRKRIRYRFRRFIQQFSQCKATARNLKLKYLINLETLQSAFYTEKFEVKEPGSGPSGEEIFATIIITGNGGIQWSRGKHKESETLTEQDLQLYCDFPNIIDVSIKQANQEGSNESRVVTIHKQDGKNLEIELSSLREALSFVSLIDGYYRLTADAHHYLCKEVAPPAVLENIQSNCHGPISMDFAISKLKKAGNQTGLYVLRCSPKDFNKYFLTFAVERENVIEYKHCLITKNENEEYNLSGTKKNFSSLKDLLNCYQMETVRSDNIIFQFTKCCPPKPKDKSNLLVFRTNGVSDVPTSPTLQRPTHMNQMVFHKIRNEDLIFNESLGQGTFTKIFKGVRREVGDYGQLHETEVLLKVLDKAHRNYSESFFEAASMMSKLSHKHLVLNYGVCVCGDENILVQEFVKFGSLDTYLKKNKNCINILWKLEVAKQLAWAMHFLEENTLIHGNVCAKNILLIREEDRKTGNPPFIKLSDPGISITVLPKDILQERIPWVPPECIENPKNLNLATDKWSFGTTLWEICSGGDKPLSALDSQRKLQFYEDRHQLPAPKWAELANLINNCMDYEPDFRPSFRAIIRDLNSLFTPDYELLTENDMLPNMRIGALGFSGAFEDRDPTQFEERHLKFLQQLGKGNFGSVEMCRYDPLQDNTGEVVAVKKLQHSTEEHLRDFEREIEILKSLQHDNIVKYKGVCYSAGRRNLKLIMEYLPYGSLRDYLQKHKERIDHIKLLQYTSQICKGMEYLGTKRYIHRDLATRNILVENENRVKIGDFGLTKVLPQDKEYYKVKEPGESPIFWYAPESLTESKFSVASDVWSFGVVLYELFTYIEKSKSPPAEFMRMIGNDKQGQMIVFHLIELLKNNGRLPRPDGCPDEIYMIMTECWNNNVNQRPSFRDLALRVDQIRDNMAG

| inhibition [1] | inhibition [2] | Kd [3] | inhibition [4] | inhibition [5] | IC50 [6] | inhibition [8] | inhibition [10] | inhibition [11] | IC50 [12] | inhibition [13] | inhibition [14] | inhibition [15] | inhibition [16] | inhibition [17] | Compound | Activity [7] | Activity [9] |
| --- | --- | --- | --- | --- | --- | --- | --- | --- | --- | --- | --- | --- | --- | --- | --- | --- | --- |
| inactive | inactive | 74000 nM | inactive | inactive |  |  |  |  |  |  |  |  |  |  | CN(CCc1ccccc1)C(=O)c1csc2c1CCC/C2=N/O |  |  |
| Active | inactive | 701 nM | Active | inactive | 3200 nM | Active | Active | inactive |  |  |  |  |  |  | CC(C)[C@@H](C)NC(=O)c1cc(-c2cc3ccccc3s2)cc(C(=O)NCCc2ccccn2)n1 | Non-toxic | Non-toxic |
| Active | inactive | 656 nM | Active | inactive | 2700 nM | Active | Active | inactive | 2740 nM | Active | Active | Active | Active | Active | CC(C)[C@@H](C)NC(=O)c1cc(-c2cc3ccccc3n2C)cc(C(=O)NCCc2ccccn2)n1 | Non-toxic | Non-toxic |
